What was measured:
Cytochrome P450 2D6 = Cytochrome P450 2D6 (Homo sapiens, UniProt P10635); assay: Inhibition of CYP2D6 at 10 uM; type: ADME
[1] = Protein binding in plasma; type: ADME, cell-free; settings: read-out: PPB
CYP3A4 = CYP3A4 (Homo sapiens, UniProt P08684); assay: Inhibition of CYP3A4 in human liver microsomes using NADPH at 10 uM by LC-MS/MS analysis relative to control; type: ADME, Microsome
[2] = target: T1, 11-beta-hydroxysteroid dehydrogenase 1 (Homo sapiens, UniProt P28845); assay: Inhibition of human 11beta HSD1 expressed in HEK293 cells assessed as assessed as inhibition of [1,2-(n)3H]cortisone to [3H]-cortisol after 60 mins by scintillation proximity assay; type: cell-based
Target sequence in this assay (P28845 whole entry): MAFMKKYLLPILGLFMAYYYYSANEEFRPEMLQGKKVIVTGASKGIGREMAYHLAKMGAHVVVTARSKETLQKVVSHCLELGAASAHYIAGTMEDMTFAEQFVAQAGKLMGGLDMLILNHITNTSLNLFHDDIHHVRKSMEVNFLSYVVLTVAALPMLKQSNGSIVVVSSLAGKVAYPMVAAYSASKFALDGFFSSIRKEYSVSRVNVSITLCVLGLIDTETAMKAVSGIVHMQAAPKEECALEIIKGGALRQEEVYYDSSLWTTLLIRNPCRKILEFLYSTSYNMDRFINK

[3] = target: T2, 11-beta-hydroxysteroid dehydrogenase type 2 (Homo sapiens, UniProt P80365); assay: Inhibition of human 11beta HSD2
T2 sequence (P80365 whole entry): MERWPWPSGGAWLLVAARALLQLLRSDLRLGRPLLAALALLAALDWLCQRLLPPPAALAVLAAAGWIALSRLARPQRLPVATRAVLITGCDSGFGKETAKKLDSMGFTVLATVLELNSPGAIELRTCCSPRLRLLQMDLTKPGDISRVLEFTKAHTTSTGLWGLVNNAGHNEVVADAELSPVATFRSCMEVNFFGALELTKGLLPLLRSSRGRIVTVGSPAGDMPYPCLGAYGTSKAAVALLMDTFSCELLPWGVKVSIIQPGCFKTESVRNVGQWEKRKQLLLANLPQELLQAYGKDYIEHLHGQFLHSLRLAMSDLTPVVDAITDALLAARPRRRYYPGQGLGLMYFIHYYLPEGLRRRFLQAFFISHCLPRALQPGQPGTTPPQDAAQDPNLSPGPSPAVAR

Homo sapiens = species: Homo sapiens; assay: Selectivity ratio of IC50 for human 11beta HSD2 to IC50 for human 11beta HSD1
[4] = target: T1, 11-beta-hydroxysteroid dehydrogenase 1; assay: Inhibition of human 11beta HSD1 expressed in HEK293 cells assessed as assessed as inhibition of [1,2-(n)3H]cortisone to [3H]-cortisol at 100 uM after 60 mins by scintillation proximity assay
Target sequence in this assay (P28845 whole entry, looked up): as the sequence (P28845 whole entry) above

Chain of CYP3A4 (P08684 whole entry): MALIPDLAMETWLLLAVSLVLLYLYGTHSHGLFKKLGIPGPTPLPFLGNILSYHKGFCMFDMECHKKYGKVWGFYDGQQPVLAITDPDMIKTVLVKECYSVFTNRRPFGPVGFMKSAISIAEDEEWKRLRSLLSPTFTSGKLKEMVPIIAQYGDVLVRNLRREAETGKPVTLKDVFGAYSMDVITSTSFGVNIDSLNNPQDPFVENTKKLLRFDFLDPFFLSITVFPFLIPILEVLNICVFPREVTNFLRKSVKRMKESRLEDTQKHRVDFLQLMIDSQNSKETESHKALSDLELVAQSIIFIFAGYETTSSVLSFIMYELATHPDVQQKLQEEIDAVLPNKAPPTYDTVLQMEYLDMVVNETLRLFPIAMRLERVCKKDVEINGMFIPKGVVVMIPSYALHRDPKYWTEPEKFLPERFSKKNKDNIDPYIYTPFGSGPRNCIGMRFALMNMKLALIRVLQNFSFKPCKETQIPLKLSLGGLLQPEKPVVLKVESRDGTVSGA
Chain of Cytochrome P450 2D6 (P10635 whole entry): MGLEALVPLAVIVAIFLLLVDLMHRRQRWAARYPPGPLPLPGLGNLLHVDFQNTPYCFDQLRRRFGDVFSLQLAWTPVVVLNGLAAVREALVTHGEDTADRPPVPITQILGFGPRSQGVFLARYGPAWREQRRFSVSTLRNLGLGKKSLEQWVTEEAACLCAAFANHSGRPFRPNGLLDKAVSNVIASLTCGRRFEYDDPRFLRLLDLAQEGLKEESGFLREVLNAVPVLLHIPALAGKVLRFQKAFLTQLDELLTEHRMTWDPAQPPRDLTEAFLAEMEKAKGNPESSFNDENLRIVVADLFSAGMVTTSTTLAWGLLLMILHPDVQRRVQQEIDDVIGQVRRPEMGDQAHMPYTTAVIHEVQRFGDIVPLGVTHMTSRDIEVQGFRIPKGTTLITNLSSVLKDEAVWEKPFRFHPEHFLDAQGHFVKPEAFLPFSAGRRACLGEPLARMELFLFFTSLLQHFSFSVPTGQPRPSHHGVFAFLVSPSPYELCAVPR

| SMILES | inhibition (INH) (Cytochrome P450 2D6) | fraction unbound [1] | inhibition at 10 µM (CYP3A4) | IC50 [2] | IC50 [3] | Ratio IC50 (Homo sapiens) | inhibition [4] |
| --- | --- | --- | --- | --- | --- | --- | --- |
| O=S(=O)(c1ccc2ccccc2c1)N1CCN(c2ncc(C(F)(F)F)cc2Cl)CC1 | Not Active | ≤ 0.1 | 13% |  |  |  |  |
| O=C(CSc1nnc(-c2ccccc2)c(-c2ccccc2)n1)N1CCc2ccccc21 | Active | ≤ 0.05 | 36% | 58.1 nM | 8900 nM | 200 |  |
| O=S(=O)(Nc1cccc(CCc2ccccn2)c1)c1cc(Cl)ccc1Cl | Active | ≤ 0.1 | 82% | 102 nM |  |  |  |
| CCN(CC)C(=O)Cc1csc(NS(=O)(=O)c2cccc(Cl)c2C)n1 |  |  |  | 28.4 nM |  |  |  |
| N#C/C(=C\c1ccc2c(c1)CCO2)S(=O)(=O)c1ccc(Cl)cc1Cl | Not Active | ≤ 0.05 | 26% |  |  |  |  |

The next lines start with the values.

| inhibition (INH) (Cytochrome P450 2D6) | fraction unbound [1] | inhibition at 10 µM (CYP3A4) | IC50 [2] | IC50 [3] | Ratio IC50 (Homo sapiens) | inhibition [4] | SMILES |
| --- | --- | --- | --- | --- | --- | --- | --- |
| Not Active | ≤ 0.1 | 26% |  |  |  |  | O=S(=O)(c1ccc2ccccc2c1)N1CCCN(Cc2c(F)cccc2Cl)CC1 |
| Not Active | ≤ 0.05 | 73% |  |  |  |  | Fc1cccc(Cl)c1CSc1nnc(-c2ccco2)n1-c1ccc(OCc2ccccc2)cc1 |
| Not Active | ≤ 0.05 | 14% |  |  |  |  | O=S(=O)(c1ccc2ccccc2c1)N1CC=C(c2ccccc2)CC1 |
| Not Active | ≤ 0.05 | 17% | 41.3 nM |  | 2420 | < 50% | CN(Cc1ccccc1)S(=O)(=O)c1ccc(Oc2cccc(Cl)c2C#N)cc1 |
